Species on record: Rattus norvegicus
Assay: DrugMatrix - Regimen: Daily Repeat
Type: toxicity, organism-based, Sprague-Dawley
Design: regimen Daily Repeat, gender Male, age 6-8 weeks
Conditions: in vivo, po, route oral GAVAGE, vehicle .5 % CMC; for BASOPHIL / EOSINOPHIL / ERYTHROCYTE COUNT / HEMATOCRIT / HEMOGLOBIN / LYMPHOCYTE / MEAN CORPUSCULAR HEMOGLOBIN / MEAN CORPUSCULAR HEMOGLOBIN CONCENTRATION / MEAN CORPUSCULAR VOLUME / MONOCYTE / NEUTROPHIL / PLATELET COUNT: tissue Blood; for ALANINE AMINOTRANSFERASE / ALBUMIN / ALKALINE PHOSPHATASE / ASPARTATE AMINOTRANSFERASE / BLOOD UREA NITROGEN / CHOLESTEROL / CREATINE PHOSPHOKINASE / CREATININE / GLUCOSE / PHOSPHORUS / POTASSIUM / SODIUM / TOTAL BILIRUBIN / TOTAL PROTEIN: tissue Plasma
[1] = 0 mg/kg, 72 h, dose level Control, time 3 day
[2] = 0 mg/kg, 120 h, dose level Control, time 5 day
[3] = 20 mg/kg, 72 h, dose level Low, time 3 day
[4] = 20 mg/kg, 120 h, dose level Low, time 5 day

In the case of `CN(C)CCC=C1c2ccccc2COc2ccccc21` [DOXEPIN], the BASOPHIL [1] is reported as 0%, the EOSINOPHIL [1] is reported as 0.33% and the “ERYTHROCYTE COUNT” value [1] is reported as 6.2 x10E6/uL. For the same compound, the HEMATOCRIT [1] was 38.08%, the HEMOGLOBIN [1] was 14.92 G/DL and the LYMPHOCYTE [1] was 76%. The “MEAN CORPUSCULAR HEMOGLOBIN” value [1] was 24.1 pg, the “MEAN CORPUSCULAR HEMOGLOBIN CONCENTRATION” value [1] was 39.17 G/DL and the “MEAN CORPUSCULAR VOLUME” value [1] was 61.48 fL. The MONOCYTE [1] was 3.83%, the NEUTROPHIL [1] was 19.83% and the “PLATELET COUNT” value [1] was 1327.5 x10E3/uL. The “ALANINE AMINOTRANSFERASE” value [1] was 40.17 u/L, the ALBUMIN [1] was 4.07 G/DL and the “ALKALINE PHOSPHATASE” value [1] was 372 u/L. For the same compound, the “ASPARTATE AMINOTRANSFERASE” value [1] was 67.17 u/L, the “BLOOD UREA NITROGEN” value [1] was 18.83 mg/dL and the CHOLESTEROL [1] was 78.17 mg/dL. For the same compound, the “CREATINE PHOSPHOKINASE” value [1] was 149.17 u/L, the CREATININE [1] was 0.57 mg/dL and the GLUCOSE [1] was 185.17 mg/dL. It also gave a PHOSPHORUS [1] of 11.43 mg/dL, a POTASSIUM [1] of 6.78 MEQ/L and an SODIUM [1] of 152.83 MEQ/L. For the same compound, the “TOTAL BILIRUBIN” value [1] was 0.4 mg/dL, the “TOTAL PROTEIN” value [1] was 6.87 G/DL and the BASOPHIL [2] was 0%. For the same compound, the EOSINOPHIL [2] was 0%, the “ERYTHROCYTE COUNT” value [2] was 6.05 x10E6/uL and the HEMATOCRIT [2] was 36.55%. The HEMOGLOBIN [2] was 14.7 G/DL, the LYMPHOCYTE [2] was 86.83% and the “MEAN CORPUSCULAR HEMOGLOBIN” value [2] was 24.37 pg. The “MEAN CORPUSCULAR HEMOGLOBIN CONCENTRATION” value [2] was 40.32 G/DL, the “MEAN CORPUSCULAR VOLUME” value [2] was 60.47 fL and the MONOCYTE [2] was 0.83%. For the same compound, the NEUTROPHIL [2] was 12.33%, the “PLATELET COUNT” value [2] was 1177 x10E3/uL and the “ALANINE AMINOTRANSFERASE” value [2] was 41.83 u/L. For the same compound, the ALBUMIN [2] was 3.75 G/DL, the “ALKALINE PHOSPHATASE” value [2] was 377.5 u/L and the “ASPARTATE AMINOTRANSFERASE” value [2] was 60.83 u/L. For the same compound, the “BLOOD UREA NITROGEN” value [2] was 16 mg/dL, the CHOLESTEROL [2] was 67.83 mg/dL and the “CREATINE PHOSPHOKINASE” value [2] was 120.33 u/L. It also gave a CREATININE [2] of 0.6 mg/dL, a GLUCOSE [2] of 167.67 mg/dL and a PHOSPHORUS [2] of 10.03 mg/dL. For the same compound, the POTASSIUM [2] was 6.68 MEQ/L, the SODIUM [2] was 150.5 MEQ/L and the “TOTAL BILIRUBIN” value [2] was 0.57 mg/dL. The “TOTAL PROTEIN” value [2] was 6.25 G/DL, the BASOPHIL [3] was 0% and the EOSINOPHIL [3] was 0%. For the same compound, the “ERYTHROCYTE COUNT” value [3] was 5.9 x10E6/uL, the HEMATOCRIT [3] was 36.4% and the HEMOGLOBIN [3] was 14.15 G/DL. For the same compound, the LYMPHOCYTE [3] was 83%, the “MEAN CORPUSCULAR HEMOGLOBIN” value [3] was 24 pg and the “MEAN CORPUSCULAR HEMOGLOBIN CONCENTRATION” value [3] was 38.9 G/DL. The “MEAN CORPUSCULAR VOLUME” value [3] was 61.75 fL, the MONOCYTE [3] was 0% and the NEUTROPHIL [3] was 17%. For the same compound, the “PLATELET COUNT” value [3] was 1287.5 x10E3/uL, the “ALANINE AMINOTRANSFERASE” value [3] was 38.33 u/L and the ALBUMIN [3] was 3.6 G/DL. For the same compound, the “ALKALINE PHOSPHATASE” value [3] was 352.33 u/L, the “ASPARTATE AMINOTRANSFERASE” value [3] was 56.67 u/L and the “BLOOD UREA NITROGEN” value [3] was 11.67 mg/dL. The CHOLESTEROL [3] was 72.67 mg/dL, the “CREATINE PHOSPHOKINASE” value [3] was 139.33 u/L and the CREATININE [3] was 0.53 mg/dL. For the same compound, the GLUCOSE [3] was 179.67 mg/dL, the PHOSPHORUS [3] was 11.8 mg/dL and the POTASSIUM [3] was 6.33 MEQ/L. The SODIUM [3] was 150 MEQ/L, the “TOTAL BILIRUBIN” value [3] was 0.2 mg/dL and the “TOTAL PROTEIN” value [3] was 5.83 G/DL. For the same compound, the BASOPHIL [4] was 0%, the EOSINOPHIL [4] was 0% and the “ERYTHROCYTE COUNT” value [4] was 6.16 x10E6/uL. The HEMATOCRIT [4] was 37.07%, the HEMOGLOBIN [4] was 14.67 G/DL and the LYMPHOCYTE [4] was 91.67%. The “MEAN CORPUSCULAR HEMOGLOBIN” value [4] was 23.87 pg, the “MEAN CORPUSCULAR HEMOGLOBIN CONCENTRATION” value [4] was 39.57 G/DL and the “MEAN CORPUSCULAR VOLUME” value [4] was 60.23 fL. The MONOCYTE [4] was 0.33%, the NEUTROPHIL [4] was 8% and the “PLATELET COUNT” value [4] was 1231.33 x10E3/uL. The “ALANINE AMINOTRANSFERASE” value [4] was 36 u/L, the ALBUMIN [4] was 3.67 G/DL and the “ALKALINE PHOSPHATASE” value [4] was 311.33 u/L. For the same compound, the “ASPARTATE AMINOTRANSFERASE” value [4] was 55.67 u/L, the “BLOOD UREA NITROGEN” value [4] was 12.67 mg/dL and the CHOLESTEROL [4] was 71.33 mg/dL. The “CREATINE PHOSPHOKINASE” value [4] was 153 u/L, the CREATININE [4] was 0.6 mg/dL and the GLUCOSE [4] was 161.33 mg/dL. The PHOSPHORUS [4] was 12.47 mg/dL, the POTASSIUM [4] was 6.8 MEQ/L and the SODIUM [4] was 151.67 MEQ/L. For the same compound, the “TOTAL BILIRUBIN” value [4] was 0.43 mg/dL and the “TOTAL PROTEIN” value [4] was 6.17 G/DL.

Source: ChEMBL document CHEMBL3885881, “DrugMatrix”
